T/C data for 19 compounds are collected here from PubChem BioAssay AID296 (DTP/NCI, 2004).

Where “and” joins values, the source holds several entries; their conditions need not be identical. Equal values may be shown once. Records with an inconclusive call do not appear.

The subject of this test is MX-1 breast xenograft, nude mice, tumor weight T/C. Kind of test: NCI In Vivo Anticancer Drug Screen. Data for tumor model Human Mammary Carcinoma MX-1 Xenograft (intrarenal inoculation) in NU/NU Swiss (nude) mice. The following applies: endpoint: mean tumor weight change, higher = larger tumour. The protocol: The antitumor activity of compounds was measured in mice bearing transplantable tumors. Survival or tumor size were measured and the results are expressed as the measurement made in the treated group (T) divided by the measurement made in the vehicle treated control group (C). The tumor model used in this assay is Human Mammary Carcinoma MX-1 Xenograft (intrarenal inoculation) in NU/NU Swiss (nude) mice
Background: A xenograft is tissue or cells of one species grown in another, often human tumour cells in immunodeficient mice.

[1] abbreviates: dose: 200.0 mg/kg/injection, schedule: Q01DX010 (sc), vehicle: saline with Tween-80.
[2] abbreviates: dose: 8.0 mg/kg/injection, schedule: Q04DX003 (sc), vehicle: water.
Where [3] appears, read: dose: 300.0 mg/kg/injection, schedule: Q04DX003 (sc), vehicle: Klucel (hydroxypropylcellulose) (HPC).
[4] abbreviates: dose: 50.0 mg/kg/injection, schedule: Q01DX010 (sc), vehicle: Klucel (hydroxypropylcellulose) (HPC).
Where [5] appears, read: dose: 100.0 mg/kg/injection, schedule: Q01DX010 (sc), vehicle: Klucel (hydroxypropylcellulose) (HPC).
[6] abbreviates: dose: 300.0 mg/kg/injection, schedule: Q04DX003 (sc), vehicle: saline.
The mark [7] stands for this setting: dose: 600.0 mg/kg/injection, schedule: Q04DX003 (sc), vehicle: saline.

Take `CCOC(C)C(/C=N/NC(N)=S)=NNC(N)=S` (configuration not stated): the T/C is, setting by setting: (dose: 100.0 mg/kg/injection, schedule: Q01DX010 (sc), vehicle: saline with Tween-80) 167 % of control; under setting [1], 123 % of control; (dose: 800.0 mg/kg/injection, schedule: Q01DX010 (sc), vehicle: saline with Tween-80) 96 % of control.

As for `COC1=C(NC(C)=O)C(=O)c2nc(-c3nc(C(=O)O)c(C)c(-c4ccc(OC)c(OC)c4O)c3N)ccc2C1=O`, the T/C (dose: 50.0 mg/kg/injection, schedule: Q04DX003 (sc), vehicle: Klucel (hydroxypropylcellulose) (HPC)) was 118 % of control and the T/C (dose: 100.0 mg/kg/injection, schedule: Q04DX003 (sc), vehicle: Klucel (hydroxypropylcellulose) (HPC)) was 47 % of control.

`COc1cccc2c1C(=O)c1c(O)c3c(c(O)c1C2=O)C[C@@](O)(C(=O)CO)C[C@@H]3OC1CC(N)C(O)C(C)O1` (some centres not stated): the T/C is, setting by setting: (dose: 0.25 mg/kg/injection, schedule: Q01DX010 (ip), vehicle: water) 46 % of control; (dose: 0.5 mg/kg/injection, schedule: Q01DX010 (ip), vehicle: water) 37 % of control; (dose: 0.75 mg/kg/injection, schedule: Q01DX010 (sc), vehicle: saline) 159 % of control; (dose: 1.0 mg/kg/injection, schedule: Q01DX010 (ip), vehicle: water) 10 % of control; (dose: 1.5 mg/kg/injection, schedule: Q01DX010 (sc), vehicle: saline) 84 % of control; (dose: 3.0 mg/kg/injection, schedule: Q01DX010 (sc), vehicle: saline) 94 % of control. The T/C was 61 % of control (dose: 4.0 mg/kg/injection, schedule: Q04DX003 (sc), vehicle: water); 52 % of control (dose: 6.0 mg/kg/injection, schedule: Q01DX010 (sc), vehicle: saline); 69 % of control (dose: 6.0 mg/kg/injection, schedule: Q01DX010 (sc), vehicle: water); 61 % of control under setting [2].

`COc1cccc2c1C(=N)c1c(O)c3c(c(O)c1C2=O)C[C@@](O)(C(C)=O)C[C@@H]3OC1CC(N)C(O)C(C)O1` (some centres not stated): the T/C reads like this: (dose: 4.0 mg/kg/injection, schedule: Q01DX010 (sc), vehicle: water) 62 % of control; (dose: 16.0 mg/kg/injection, schedule: Q01DX010 (sc), vehicle: water) 13 % of control and 21 % of control.

Turning to `C/C=C/c1cc2c(c(=O)o1)C(=O)[C@@H](O)[C@H](C)O2`, the T/C (dose: 50.0 mg/kg/injection, schedule: Q04DX003 (sc), vehicle: saline with Tween-80) is 114 % of control; the T/C (dose: 100.0 mg/kg/injection, schedule: Q04DX003 (sc), vehicle: saline with Tween-80) was 93 % of control; the T/C (dose: 200.0 mg/kg/injection, schedule: Q04DX003 (sc), vehicle: saline with Tween-80) is 101 % of control.

Consider `O=[N+]([O-])c1ccc(-n2[nH]nnc2=S)cc1`, for which the T/C runs as follows: (dose: 200.0 mg/kg/injection, schedule: Q04DX003 (sc), vehicle: Klucel (hydroxypropylcellulose) (HPC)) 158 % of control; (dose: 400.0 mg/kg/injection, schedule: Q04DX003 (sc), vehicle: Klucel (hydroxypropylcellulose) (HPC)) 151 % of control; (dose: 800.0 mg/kg/injection, schedule: Q04DX003 (sc), vehicle: Klucel (hydroxypropylcellulose) (HPC)) 169 % of control.

Consider `[Cl][Pt+2][Cl].[NH-]C1CCC1.[NH2-]`, for which the T/C (dose: 6.25 mg/kg/injection, schedule: Q04DX003 (sc), vehicle: suspension in saline) was -100 % of control; the T/C (dose: 25.0 mg/kg/injection, schedule: Q04DX003 (sc), vehicle: suspension in saline) is -84 % of control and -100 % of control.

As to `O=S(=O)(O)O`, the T/C was 86 % of control (dose: 75.0 mg/kg/injection, schedule: Q04DX003 (sc), vehicle: Klucel (hydroxypropylcellulose) (HPC)); 94 % of control (dose: 150.0 mg/kg/injection, schedule: Q04DX003 (sc), vehicle: Klucel (hydroxypropylcellulose) (HPC)); 85 % of control under setting [3].

In the case of `COc1ccc2c(NCCCCCCCCNc3c4ccccc4nc4cc(OC)ccc34)c3ccccc3nc2c1`, the T/C was 68 % of control (dose: 8.0 mg/kg/injection, schedule: Q04DX003 (sc), vehicle: suspension in saline); 78 % of control (dose: 16.0 mg/kg/injection, schedule: Q04DX003 (sc), vehicle: suspension in saline); 104 % of control (dose: 32.0 mg/kg/injection, schedule: Q04DX003 (sc), vehicle: suspension in saline); 92 % of control (dose: 64.0 mg/kg/injection, schedule: Q04DX003 (sc), vehicle: suspension in saline).

Regarding `CC(Oc1ccccc1-c1ccccc1)C(=O)N(C)C` (configuration not stated), the T/C is 82 % of control (dose: 300.0 mg/kg/injection, schedule: Q04DX003 (sc), vehicle: saline with Tween-80); 102 % of control (dose: 600.0 mg/kg/injection, schedule: Q04DX003 (sc), vehicle: saline with Tween-80); 114 % of control (dose: 1200.0 mg/kg/injection, schedule: Q04DX003 (sc), vehicle: saline with Tween-80); 60 % of control (dose: 2400.0 mg/kg/injection, schedule: Q04DX003 (sc), vehicle: saline with Tween-80).

Regarding `CCCC(=O)OCc1cc(=O)n(C)c2c3c4c(cc12)c(C)cc(=O)n4CO3`, the T/C (dose: 12.5 mg/kg/injection, schedule: Q01DX010 (sc), vehicle: Klucel (hydroxypropylcellulose) (HPC)) was 170 % of control; the T/C (dose: 25.0 mg/kg/injection, schedule: Q01DX010 (sc), vehicle: Klucel (hydroxypropylcellulose) (HPC)) is 67 % of control; the T/C under setting [4] is 20 % of control; the T/C under setting [5] was 15 % of control; the T/C (dose: 200.0 mg/kg/injection, schedule: Q01DX010 (sc), vehicle: Klucel (hydroxypropylcellulose) (HPC)) was 87 % of control; the T/C (dose: 400.0 mg/kg/injection, schedule: Q01DX010 (sc), vehicle: Klucel (hydroxypropylcellulose) (HPC)) was 91 % of control. The T/C (dose: 800.0 mg/kg/injection, schedule: Q01DX010 (sc), vehicle: Klucel (hydroxypropylcellulose) (HPC)) was 72 % of control.

Consider `CCOC(=O)C(N)CSC(=O)NC` (configuration not stated), for which the T/C runs as follows: (dose: 112.0 mg/kg/injection, schedule: Q04DX003 (sc), vehicle: saline) 12 % of control; under setting [6], 33 % of control; (dose: 400.0 mg/kg/injection, schedule: Q04DX003 (sc), vehicle: saline) 15 % of control; under setting [7], 8 % of control; (dose: 800.0 mg/kg/injection, schedule: Q04DX003 (sc), vehicle: saline) 3 % of control.

On to `CCCC(=O)Oc1ccc(/C=N/NC(N)=S)nc1`, for which the T/C is 101 % of control (dose: 50.0 mg/kg/injection, schedule: Q01DX010 (sc), vehicle: saline with Tween-80) and 113 % of control under setting [1].

In the case of `O=C1N=C(Oc2ccccc2)SC1=O`, the T/C (dose: 400.0 mg/kg/injection, schedule: Q04DX003 (sc), vehicle: saline with Tween-80) was 67 % of control.

Take `OCCCN1CCCCC1CO` (configuration not stated): the T/C reads like this: under setting [6], 85 % of control; under setting [7], 84 % of control; (dose: 1200.0 mg/kg/injection, schedule: Q04DX003 (sc), vehicle: saline) 98 % of control.

As for `C[N+](C)(C)c1cc2c(nn1)Nc1ccccc1S2`, the T/C by setting is: under setting [4], 74 % of control; under setting [5], 240 % of control and 272 % of control.

Take `Cc1cc(N(CC(C)Br)CC(C)Br)ccc1N=Nc1ccccc1C(=O)O` (configuration not stated): the T/C is 10 % of control and 12 % of control (dose: 3.13 mg/kg/injection, schedule: Q01DX010 (sc), vehicle: saline with Tween-80); -46 % of control (dose: 6.25 mg/kg/injection, schedule: Q01DX010 (sc), vehicle: saline with Tween-80); -79 % of control (dose: 12.5 mg/kg/injection, schedule: Q01DX010 (sc), vehicle: saline with Tween-80).

Take `O=c1ssc(=Nc2ccccc2)n1-c1ccccc1`: the T/C is, setting by setting: under setting [3], 65 % of control; (dose: 600.0 mg/kg/injection, schedule: Q04DX003 (sc), vehicle: Klucel (hydroxypropylcellulose) (HPC)) 95 % of control; (dose: 1200.0 mg/kg/injection, schedule: Q04DX003 (sc), vehicle: Klucel (hydroxypropylcellulose) (HPC)) 112 % of control; (dose: 2400.0 mg/kg/injection, schedule: Q04DX003 (sc), vehicle: Klucel (hydroxypropylcellulose) (HPC)) 106 % of control.

For the compound `CCC1CC2CN(CCc3c([nH]c4ccccc34)C(C(=O)OC)(c3cc4c(cc3OC)N(C)C3C(O)(C(=O)OC)C(OC(C)=O)C5(CC)C=CCN6CCC43C65)C2)C1` (configuration not stated), the T/C runs as follows: (dose: 4.0 mg/kg/injection, schedule: Q04DX003 (sc), vehicle: saline) 36 % of control; (dose: 8.0 mg/kg/injection, schedule: Q04DX003 (sc), vehicle: saline) 4 % of control; under setting [2], 25 % of control; (dose: 16.0 mg/kg/injection, schedule: Q04DX003 (sc), vehicle: saline) -86 % of control.
